Literature values as cited in patent US7041008B2, “Golf ball with sulfur cured inner component” (priority 1993, dated 2006).

Compound	Acute oral LD50
2,2′-bis(t-butylperoxy)-di-iso-propylbenzene	>23,000 mg/kg
CC1CC(C)(C)CC(OOC(C)(C)C)(OOC(C)(C)C)C1 (stereo not drawn) [1,1-bis(t-butylperoxy)-3,3,5-trimethyl cyclohexane]	>13,000 mg/kg
CC(C)(C)OOC(C)(C)CCC(C)(C)OOC(C)(C)C [2,5-dimethyl-2,5-di(t-butylperoxy) hexane]	>32,000 mg/kg
C1CN(SSN2CCOCC2)CCO1 [4,4″-dithiodimorpholine]	5,600 mg/kg
O=C1CCCCCN1SSN1CCCCCC1=O [N,N′-caprolactum disulfide]	3,620 mg/kg
O=C(OOC(=O)c1ccccc1)c1ccccc1 [benzoyl peroxide]	>5,000 mg/kg
CC(C)(OOC(C)(C)c1ccccc1)c1ccccc1 [dicumyl peroxide]	4,100 mg/kg
CCCCOC(=O)CCC(C)(OOC(C)(C)C)OOC(C)(C)C [n-butyl 4,4-bis(t-butyl-peroxy) valerate]	5,000 mg/kg
CC(C)(C)OOC(=O)c1ccccc1 [t-butyl perbenzoate]	>3,600 mg/kg
